In patent publication US7285664B2, “Heterocyclic or benzenic derivatives of lipoic acid, their preparation and their use as medicaments” (S.C.R.A.S. Societe de Conseils de Recherches et …, priority 2000, dated 2007) one finds EC50 data, which are given here for nine molecules.

The structures appear in SMILES notation. Counter-ions that a name gives are not always drawn.

The subject of this assay is HT-22 cells. Briefly: Effects on the oxidative stress induced by glutamate on cells in culture (HT-22), MTT viability. It is filed as cell-based. The settings on record: Mus musculus; protection of HT-22 cells from glutamate (5 mM); viability after 24 hours by MTT. The protocol:
Study of the Effects on the Oxidative Stress Induced by Glutamate on Cells in Culture (HT-22):
The inhibitory activity of the products of the invention is determined by measuring their ability to protect the cells of a mouse hippocampal cell line (HT-22) from oxidative stress caused by glutamate. The biosynthesis of glutathione, an essential element in cell detoxification of free radicals, requires the active transport of cystine to inside the cell. The glutamate by opposing the penetration of cystine causes a reduction in the level of gluthatione which leads to the death of the cell by oxidative stress (Demerle-Pallardy, C. et al., J. Neurochem. (2000), 74, 2079-2086; Davis, J. B. and Maher, P., Brain Res., (1994) 652: 169-173; Murphy, T. H. et al., Neuron, (1989) 2: 1547-1558). The cells are cultured at 37° C. in a DMEM medium with 10% of fetal calf serum added to it. The tests are carried out in 96-well plates containing 5000 cells per well. The glutamate (5 mM) is added to the medium containing or not containing the products to be tested. The cell viability is tested after 24 hours by the MTT process (Hansen, M. B. et al., J. Immunol. Processes (1989) 119: 203-210). The ability of the compounds to protect the cells from the toxic action of the glutamate is estimated in EC50, calculated relative to the viability of cells which have not been subjected to the action of the glutamate considered as 100% viability.
As a reminder, the EC50 is the concentration at which the effect is half-maximal. High values mean a less potent agent, low ones a more potent agent. With `NC(=Nc1ccc(N2CCN(C(=O)CCCCC3CCSS3)CC2)cc1)c1cccs1` (stereo not drawn) [Example 1, N′-(4-{4-[5-(1,2-dithiolan-3-yl)pentanoyl]-1-piperazinyl)phenyl)-2-thiophenecarboximidamide hydrochloride], the EC50 was ≤ 4 µM.
Next, `NC(=Nc1ccc(N2CCN(C(=O)CC3CCSS3)CC2)cc1)c1cccs1` (stereo not drawn) [Example 2, N′-(4-{4-[2-(1,2-dithiolan-3-yl)acetyl]-1-piperazinyl}phenyl)-2-thiophenecarboximidamide]: ≤ 4 µM.
Next, `NC(=Nc1cccc(CN2CCN(C(=O)CC3CCSS3)CC2)c1)c1cccs1` (stereo not drawn) [Example 4, N′-[3-({4-[2-(1,2-dithiolan-3-yl)acetyl]-1-piperazinyl}methyl)phenyl]-2-thiophenecarboximidamide]: ≤ 4 µM.
Next, `NC(=Nc1ccc(N2CCN(C(=O)NCCCCC3CCSS3)CC2)cc1)c1cccs1` (stereo not drawn) [Example 5, 4-(4-{[amino(2-thienyl)methylidene]amino}phenyl)-N-[4-(1,2-dithiolan-3-yl)butyl]-1-piperazinecarboxamide]: ≤ 4 µM.
Turning to `Cc1cc(N2CCN(C(=O)NCCCCC3CCSS3)CC2)ccc1N=C(N)c1cccs1` (stereo not drawn) [Example 7, 4-(4-{[amino(2-thienyl)methylidene]amino}-3-methylphenyl)-N-[4-(1,2-dithiolan-3-yl)butyl]-1-piperazinecarboxamide], the EC50 was ≤ 4 µM.
Consider `COc1cc(N=C(N)c2cccs2)ccc1N1CCN(C(=O)NCCCCC2CCSS2)CC1` (stereo not drawn) [Example 8, 4-(4-{[amino(2-thienyl)methylidene]amino}-2-methoxyphenyl)-N-[4-(1,2-dithiolan-3-yl)butyl]-1-piperazinecarboxamide], for which the EC50 was ≤ 4 µM.
Next, `COc1cc(N2CCN(C(=O)NCCCCC3CCSS3)CC2)ccc1N=C(N)c1cccs1` (stereo not drawn) [Example 9, 4-(4-{[amino(2-thienyl)methylidene]amino}-3-methoxyphenyl)-N-[4-(1,2-dithiolan-3-yl)butyl]-1-piperazinecarboxamide]: ≤ 4 µM; `N#Cc1cc(N=C(N)c2cccs2)ccc1N1CCN(C(=O)NCCCCC2CCSS2)CC1` (stereo not drawn) [Example 10, 4-(4-{[amino(2-thienyl)methylidene]amino}-2-cyanophenyl)-N-[4-(1,2-dithiolan-3-yl)butyl]-1-piperazinecarboxamide]: ≤ 4 µM.
As to `NC(=Nc1cccc(CN2CCN(C(=O)NCCCCC3CCSS3)CC2)c1)c1cccs1` (stereo not drawn) [Example 11, 4-(3-{[amino(2-thienyl)methylidene]amino}benzyl)-N-[4-(1,2-dithiolan-3-yl)butyl]-1-piperazinecarboxamide], the EC50 was ≤ 4 µM.
